Key:
[1] = test system: A. nosocomialis twitching motility; assay: Twitching motility, crystal violet stained twitching area; type: cell-based, Acinetobacter nosocomialis; details: WT M2 strain; for effect on twitching of the WT strain at 128 μM: compared with ΔpilA; for concentration significantly reducing twitching: P < 0.05
Source text: The inhibitors may thus interact with conserved features of the PilB ATPase family. A. nosocomialis PilB ([19]), whose N terminus is not similar to the MshEN domain (data not shown), shares ~53% identity and ~74% homology with MxPilB and MC3PilB in the ATPase domain (Fig. S1). We analyzed whether benserazide and levodopa could impact the T4P-powered twitching motility ([19], [44]) of A. nosocomialis (Fig. 7), an opportunistic pathogen in the Acinetobacter calcoaceticus-Acinetobacter baumannii (ACB) complex ([45]). As shown in Fig. 7A and B and Fig. S7, benserazide and levodopa impede the twitching motility of WT A. nosocomialis in a concentration-dependent manner.
FIG 7 Benserazide and levodopa inhibit Acinetobacter nosocomialis twitching motility and biofilm formation. (A and B) Twitching motility is correlated with the twitching area (cm^2) of the A. nosocomialis wild-type (WT) strain in the presence of (A) benserazide or (B) levodopa, with the control (no inhibitor) normalized to 1. Data are from 3 independent experiments, each performed in triplicates and represented by dots of the same color. (C and D) Biofilms formed by A. nosocomialis with (C) benserazide or (D) levodopa were analyzed by a microplate assay with crystal violet (CV) staining. Results from three independent experiments, each performed in quadruplicates and represented by dots of the same color, are shown. Horizontal lines indicate overall averages, and asterisks (*) signify that values at the indicated concentration are statistically different from those of the control (P < 0.05).
The A. nosocomialis wild-type M2 strain and an isogenic pilA deletion (ΔpilA) mutant ([19], [46]) were used in this study. They were grown and maintained using MacConkey medium at 37°C. The twitching motility of the M2 strain of A. nosocomialis was analyzed with 1% crystal violet (CV) for staining, and twitching areas were used as measures of motility as previously described ([46]). These motility assays were conducted in triplicates and the stained area of the ΔpilA mutant was subtracted from that of the WT for data analysis. A. nosocomialis biofilm formation was analyzed using microplates and CV staining as previously described ([53], [54]). The biofilm assays were conducted in quadruplicate in MacConkey medium with tissue culture-treated microtiter plates (Falcon). CV absorbance (Acv) was measured at 590 nm using Infinite M200 PRO in clear polystyrene 96-well microplates (ExtraGene). Absorbance for each well was read 16 times using Multiple Reads with the average as the final Acv value. Readings from control wells without bacteria were subtracted for normalization. Statistical differences were determined using a Student’s t test.

M. xanthus motility = assay: Colony expansion of S-motile strains on hard agar; type: cell-based, Myxococcus xanthus; details: strains YZ1674 and YZ2232, P < 0.05
Source text: On the other hand, YZ1674 and YZ2232, which have both A and S motility, were affected in their expansion on hard agar by both compounds (Fig. S4 and S5) at concentrations similar to those on soft agar. Indeed, the results with hard agar plates mirror those with soft agar. […] Because neither benserazide nor levodopa had any effect on A motility (Fig. S3C and D), the net differences on hard agar at different concentrations of the inhibitor (Fig. S4) can be viewed as confirmation of its effect on S motility (Fig. 5). […] It is plausible that this inhibition is attributable to their effects on the PilB ATPase in vivo.
M. xanthus was grown and maintained at 32°C in Casitone-yeast extract (CYE) medium ([49]). Motility assays were conducted with strains DK10416 (ΔpilB) ([40]), YZ1674 (ΔpilB att::MxpilB) ([50]), and YZ2232 (ΔpilB att::MC3pilB) ([30], [51]) as previously described ([28]). One modification was that 10% India ink was included in the cell suspension to mark the initial spot on agar plates. All experiments were conducted in quintuplicates and the diameter of the initial spot, as marked by India ink, was subtracted for data analysis.

Row | SMILES | effect on twitching of the WT strain at 128 μM [1] | concentration significantly reducing twitching [1] [µM] | concentration giving statistically significant reduction of expansion on hard agar (M. xanthus motility) [µM]
1 | NC(CO)C(=O)NNCc1ccc(O)c(O)c1O (stereo not drawn) [benserazide] | eliminated twitching | ≥ 32 | ≥ 8
2 | N[C@@H](Cc1ccc(O)c(O)c1)C(=O)O [levodopa, 3,4-dihydroxyphenylalanine] | eliminated twitching | ≥ 32 | ≥ 32

— paper PMC9769694, “Discovery of Two Inhibitors of the Type IV Pilus Assembly ATPase PilB as Potential Antivirulence Compounds” (Microbiology Spectrum, 2022)
